# Experimental data as given in US8562949B2, “Radiolabeled dihydrotetrabenazine derivatives and their use as imaging agents” (The Trustees of the University of Pennsylvania, priority 2006, dated 2013).
# Read-outs that look alike come from different tables or passages of the source.
# How the values were obtained:
# islet cell homogenates = assay: In vitro binding to islet cell homogenates (FIG. 8)
# VMAT-2 = test system: T1, VMAT-2; assay: Blocking of pancreatic signal by DTBZ in rats; type: in vivo; settings: rat
# T1 construct: from tissue; host or cells: living rats; organs dissected after iv injection
# Protocol: (§1) Rats were pretreated with non-radiolabeled DBTZ (3.8 mg/kg) five minutes prior to injection with (+)-6b.
# [1] = Blocking of pancreatic signal by DTBZ in rats; type: in vivo; settings: rat
# Protocol: as §1
# [2] = Human radiation dosimetry estimates from mouse biodistribution; settings: adult male model
# Excerpt: From the organ biodistribution data in Table 4 of Example 7, human radiation dosimetry estimates were calculates. In the mass based extrapolation, the concentration in the animal organs is converted to a concentration in human organs by multiplying the animal concentration by a ratio of the total body weight of the animals and humans (Kirschner, et al., 1975). Then the percent in the human organs is derived using organ masses taken from a standard model of the human body for adult males (Cristy and Eckerman, 1987). Data were fit using the SAAM II software (Foster and Barrett, 1999). Time integrals of activity were calculated and converted to residence times (Loevinger, et al., 1988); organ residence times were entered into the OLIND/EXM software (STabin, et al., 2005) using the adult male model. No excretion of activity was assumed; any activity not accounted for was considered to be uniformly distributed throughout the remainder of the body or removed only by physical decay. […] The estimated effective dose (0.047 rem/mCi) also compares favorably to radiation doses received with other approved radiopharmaceuticals.
# [3] = Baboon microPET imaging (FIG. 7); type: in vivo; settings: iv, 7 mCi, 70-90 min
# [4] = Biodistribution of [18F]FP-6b in normal mice (Table 4); type: in vivo, ICR mice; settings: iv
# Protocol: After anesthetizing ICR mice (22-25 g male) with isoflurane, 0.15 mL of a 0.1% bovine serum albumin solution containing [^18F]FP-(+)-6b (10-20 μCi) was injected directly into the tail vein. The mice (n=3 for each time point) were sacrificed by cervical dislocation (under isoflurane anesthesia) at indicated time-points post-injection. The organs of interest were removed and weighed, and the radioactivity was counted with an automatic gamma counter. The percentage dose per organ was calculated by a comparison of the tissue counts to suitably diluted aliquots of the injected material. The total activity of the blood was calculated under the assumption that it was 7% of the total body weight. The % does/g of samples was calculated by comparing the sample counts with the count of the diluted initial dose.
structure (smiles),measurement,setting,value
COc1cc2c(cc1OCCC[18F])CCN1C[C@@H](CC(C)C)[C@H](O)C[C@H]21 [[^18F]-(+)-6b],binding to islet cell homogenates,islet cell homogenates,specific and saturable
same,tissue uptake at 30 min,"VMAT-2; cerebellum, 30 min Blocking, DTBZ 3.8 mg/kg pretreatment, read-out: Regional Brain Distribution Cerebellum",0.25 ± 0.03 %ID/g
same,tissue uptake at 30 min,"VMAT-2; cerebellum, 30 min Control, read-out: Regional Brain Distribution Cerebellum",0.36 %ID/g
same,tissue uptake at 30 min,"VMAT-2; pancreas, 30 min Blocking, DTBZ 3.8 mg/kg pretreatment, read-out: Pancreas",3.1 ± 0.3 %ID/g
same,tissue uptake at 30 min,"VMAT-2; pancreas, 30 min Control, read-out: Pancreas",4.39 ± 0.64 %ID/g
same,tissue uptake at 30 min,"[1]; blood, 30 min Blocking, DTBZ 3.8 mg/kg pretreatment, read-out: Blood",0.32 ± 0.04 %ID/g
same,tissue uptake at 30 min,"[1]; blood, 30 min Control, read-out: Blood",0.2 ± 0.01 %ID/g
same,tissue uptake at 30 min,"[1]; cortex, 30 min Blocking, DTBZ 3.8 mg/kg pretreatment, read-out: Regional Brain Distribution Cortex",0.26 ± 0.05 %ID/g
same,tissue uptake at 30 min,"[1]; cortex, 30 min Control, read-out: Regional Brain Distribution Cortex",0.36 %ID/g
same,tissue uptake at 30 min,"[1]; hippocampus, 30 min Blocking, DTBZ 3.8 mg/kg pretreatment, read-out: Regional Brain Distribution Hippocampus",0.25 ± 0.03 %ID/g
same,tissue uptake at 30 min,"[1]; hippocampus, 30 min Control, read-out: Regional Brain Distribution Hippocampus",0.54 ± 0.03 %ID/g
same,tissue uptake at 30 min,"[1]; hypothalamus, 30 min Blocking, DTBZ 3.8 mg/kg pretreatment, read-out: Regional Brain Distribution Hypothalamus",0.25 ± 0.04 %ID/g
same,tissue uptake at 30 min,"[1]; hypothalamus, 30 min Control, read-out: Regional Brain Distribution Hypothalamus",1.2 ± 0.07 %ID/g
same,tissue uptake at 30 min,"[1]; striatum, 30 min Blocking, DTBZ 3.8 mg/kg pretreatment, read-out: Regional Brain Distribution Striatum",0.27 ± 0.02 %ID/g
same,tissue uptake at 30 min,"[1]; striatum, 30 min Control, read-out: Regional Brain Distribution Striatum",1.94 ± 0.03 %ID/g
same,"human radiation dose, liver and bone surface",[2],around 0.11 rem/mCi
same,"human radiation dose, most organs",[2],0.04-0.06 rem/mCi
same,microPET uptake,[3],no indication of skull (bone) uptake
same,Organ distribution Blood,[4]; 2 min,2.12 ± 0.17 % dose/g
same,Organ distribution Bone,[4]; 2 min,1.95 ± 0.30 % dose/g
same,Organ distribution Brain,[4]; 2 min,4.82 ± 0.86 % dose/g
same,Organ distribution Heart,[4]; 2 min,5.47 ± 1.19 % dose/g
same,Organ distribution Kidney,[4]; 2 min,10.7 ± 2.02 % dose/g
same,Organ distribution Liver,[4]; 2 min,24.6 ± 1.37 % dose/g
same,Organ distribution Lung,[4]; 2 min,9.04 ± 4.71 % dose/g
same,Organ distribution Muscle,[4]; 2 min,0.78 ± 0.11 % dose/g
same,Organ distribution Skin,[4]; 2 min,1.05 ± 0.12 % dose/g
same,Organ distribution Spleen,[4]; 2 min,7.38 ± 1.62 % dose/g
same,Ratio (vs CB) Cortex,[4]; 2 min,0.97
same,Ratio (vs CB) Hippocampus,[4]; 2 min,0.97
same,Ratio (vs CB) Hypothalamus,[4]; 2 min,1.37
same,Ratio (vs CB) Remainder,[4]; 2 min,1.01
same,Ratio (vs CB) Striatum,[4]; 2 min,1.56
same,Regional brain distribution Cerebellum (CB),[4]; 2 min,4.67 ± 0.74 % dose/g
same,Regional brain distribution Cortex,[4]; 2 min,4.54 ± 0.66 % dose/g
same,Regional brain distribution Hippocampus,[4]; 2 min,4.54 ± 0.72 % dose/g
same,Regional brain distribution Hypothalamus,[4]; 2 min,6.41 ± 1.11 % dose/g
same,Regional brain distribution Remainder,[4]; 2 min,4.71 ± 0.74 % dose/g
same,Regional brain distribution Striatum,[4]; 2 min,7.28 ± 0.80 % dose/g
same,Organ distribution Blood,[4]; 30 min,1.73 ± 0.15 % dose/g
same,Organ distribution Bone,[4]; 30 min,4.88 ± 1.43 % dose/g
same,Organ distribution Brain,[4]; 30 min,2.05 ± 0.37 % dose/g
same,Organ distribution Heart,[4]; 30 min,2.43 ± 0.22 % dose/g
same,Organ distribution Kidney,[4]; 30 min,5.81 ± 1.15 % dose/g
same,Organ distribution Liver,[4]; 30 min,22.2 ± 1.98 % dose/g
same,Organ distribution Lung,[4]; 30 min,3.17 ± 0.33 % dose/g
same,Organ distribution Muscle,[4]; 30 min,1.10 ± 0.12 % dose/g
same,Organ distribution Skin,[4]; 30 min,1.42 ± 0.03 % dose/g
same,Organ distribution Spleen,[4]; 30 min,3.69 ± 0.25 % dose/g
same,Ratio (vs CB) Cortex,[4]; 30 min,1.34
same,Ratio (vs CB) Hippocampus,[4]; 30 min,1.59
same,Ratio (vs CB) Hypothalamus,[4]; 30 min,3.52
same,Ratio (vs CB) Remainder,[4]; 30 min,1.45
same,Ratio (vs CB) Striatum,[4]; 30 min,4.51
same,Regional brain distribution Cerebellum (CB),[4]; 30 min,1.41 ± 0.23 % dose/g
same,Regional brain distribution Cortex,[4]; 30 min,1.88 ± 0.63 % dose/g
same,Regional brain distribution Hippocampus,[4]; 30 min,2.23 ± 0.59 % dose/g
same,Regional brain distribution Hypothalamus,[4]; 30 min,4.95 ± 0.84 % dose/g
same,Regional brain distribution Remainder,[4]; 30 min,2.04 ± 0.28 % dose/g
same,Regional brain distribution Striatum,[4]; 30 min,6.34 ± 1.01 % dose/g
same,Organ distribution Blood,[4]; 60 min,0.97 ± 0.04 % dose/g
same,Organ distribution Bone,[4]; 60 min,9.22 ± 0.48 % dose/g
same,Organ distribution Brain,[4]; 60 min,1.10 ± 0.32 % dose/g
same,Organ distribution Heart,[4]; 60 min,1.67 ± 0.02 % dose/g
same,Organ distribution Kidney,[4]; 60 min,3.48 ± 0.34 % dose/g
same,Organ distribution Liver,[4]; 60 min,14.5 ± 0.91 % dose/g
same,Organ distribution Lung,[4]; 60 min,2.00 ± 0.05 % dose/g
same,Organ distribution Muscle,[4]; 60 min,0.73 ± 0.04 % dose/g
same,Organ distribution Skin,[4]; 60 min,1.06 ± 0.04 % dose/g
same,Organ distribution Spleen,[4]; 60 min,2.11 ± 0.05 % dose/g
same,Ratio (vs CB) Cortex,[4]; 60 min,1.00
same,Ratio (vs CB) Hippocampus,[4]; 60 min,1.32
same,Ratio (vs CB) Hypothalamus,[4]; 60 min,2.71
same,Ratio (vs CB) Remainder,[4]; 60 min,1.45
same,Ratio (vs CB) Striatum,[4]; 60 min,4.74
same,Regional brain distribution Cerebellum (CB),[4]; 60 min,0.89 ± 0.01 % dose/g
same,Regional brain distribution Cortex,[4]; 60 min,0.89 ± 0.11 % dose/g
same,Regional brain distribution Hippocampus,[4]; 60 min,1.18 ± 0.12 % dose/g
same,Regional brain distribution Hypothalamus,[4]; 60 min,2.42 ± 0.52 % dose/g
same,Regional brain distribution Remainder,[4]; 60 min,1.30 ± 0.08 % dose/g
same,Regional brain distribution Striatum,[4]; 60 min,4.24 ± 0.78 % dose/g
same,Organ distribution Blood,[4]; 2 hr,0.57 ± 0.09 % dose/g
same,Organ distribution Bone,[4]; 2 hr,12.7 ± 1.84 % dose/g
same,Organ distribution Brain,[4]; 2 hr,0.68 ± 0.11 % dose/g
same,Organ distribution Heart,[4]; 2 hr,0.91 ± 0.14 % dose/g
same,Organ distribution Kidney,[4]; 2 hr,2.28 ± 0.34 % dose/g
same,Organ distribution Liver,[4]; 2 hr,9.81 ± 0.94 % dose/g
same,Organ distribution Lung,[4]; 2 hr,1.26 ± 0.13 % dose/g
same,Organ distribution Muscle,[4]; 2 hr,0.53 ± 0.05 % dose/g
same,Organ distribution Skin,[4]; 2 hr,0.67 ± 0.06 % dose/g
same,Organ distribution Spleen,[4]; 2 hr,1.40 ± 0.35 % dose/g
same,Ratio (vs CB) Cortex,[4]; 2 hr,0.96
same,Ratio (vs CB) Hippocampus,[4]; 2 hr,1.09
same,Ratio (vs CB) Hypothalamus,[4]; 2 hr,1.90
same,Ratio (vs CB) Remainder,[4]; 2 hr,1.15
same,Ratio (vs CB) Striatum,[4]; 2 hr,3.28
same,Regional brain distribution Cerebellum (CB),[4]; 2 hr,0.54 ± 0.09 % dose/g
same,Regional brain distribution Cortex,[4]; 2 hr,0.51 ± 0.02 % dose/g
same,Regional brain distribution Hippocampus,[4]; 2 hr,0.58 ± 0.15 % dose/g
same,Regional brain distribution Hypothalamus,[4]; 2 hr,1.02 ± 0.11 % dose/g
same,Regional brain distribution Remainder,[4]; 2 hr,0.62 ± 0.10 % dose/g
same,Regional brain distribution Striatum,[4]; 2 hr,1.76 ± 0.33 % dose/g
same,Organ distribution Blood,[4]; 4 hr,0.06 ± 0.02 % dose/g
same,Organ distribution Bone,[4]; 4 hr,3.49 ± 0.35 % dose/g
same,Organ distribution Brain,[4]; 4 hr,0.16 ± 0.03 % dose/g
same,Organ distribution Heart,[4]; 4 hr,0.12 ± 0.01 % dose/g
same,Organ distribution Kidney,[4]; 4 hr,0.31 ± 0.02 % dose/g
same,Organ distribution Liver,[4]; 4 hr,1.58 ± 0.08 % dose/g
same,Organ distribution Lung,[4]; 4 hr,0.19 ± 0.01 % dose/g
same,Organ distribution Muscle,[4]; 4 hr,0.06 ± 0.01 % dose/g
same,Organ distribution Skin,[4]; 4 hr,0.09 ± 0.01 % dose/g
same,Organ distribution Spleen,[4]; 4 hr,0.17 ± 0.02 % dose/g
same,Ratio (vs CB) Cortex,[4]; 4 hr,0.87
same,Ratio (vs CB) Hippocampus,[4]; 4 hr,0.99
same,Ratio (vs CB) Hypothalamus,[4]; 4 hr,1.15
same,Ratio (vs CB) Remainder,[4]; 4 hr,1.02
same,Ratio (vs CB) Striatum,[4]; 4 hr,1.11
same,Regional brain distribution Cerebellum (CB),[4]; 4 hr,0.41 ± 0.02 % dose/g
same,Regional brain distribution Cortex,[4]; 4 hr,0.36 ± 0.02 % dose/g
same,Regional brain distribution Hippocampus,[4]; 4 hr,0.41 ± 0.01 % dose/g
same,Regional brain distribution Hypothalamus,[4]; 4 hr,0.47 ± 0.01 % dose/g
same,Regional brain distribution Remainder,[4]; 4 hr,0.42 ± 0.05 % dose/g
same,Regional brain distribution Striatum,[4]; 4 hr,0.46 ± 0.13 % dose/g
